# Reference: patent US12221649B2 (priority 2018, dated 2025)
# Legend:
# carboxypeptidase A (CPA) = biological target: T1, carboxypeptidase A (CPA) (Homo sapiens, UniProt P15085); assay: Enzyme assay of Compound A and CPA (fluorescence increase); assay type: biochemical; conditions: 37° C.
# T1 sequence (P15085 111-419): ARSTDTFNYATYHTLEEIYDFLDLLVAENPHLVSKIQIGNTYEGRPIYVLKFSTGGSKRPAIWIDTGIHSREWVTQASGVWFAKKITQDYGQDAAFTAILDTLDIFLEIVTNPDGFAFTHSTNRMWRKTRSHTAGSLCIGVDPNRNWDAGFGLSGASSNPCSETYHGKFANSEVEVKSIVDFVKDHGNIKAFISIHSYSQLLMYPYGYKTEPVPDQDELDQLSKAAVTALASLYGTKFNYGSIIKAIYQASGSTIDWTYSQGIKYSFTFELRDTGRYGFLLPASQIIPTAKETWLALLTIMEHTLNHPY
# Method: An enzyme assay using the synthesized Compounds A, B was performed.
# (§1) FIG. 2(a) illustrates a reaction scheme of Compound A and CPA. In FIG. 2(b), 10 μM Compound A in PBS (-) was incubated at 37° C. with 5 ng CPA activated by 1.5 μg trypsin in the presence or absence of 100 μM inhibitor ((S)-benzylsuccinic acid) containing 0.1% DMSO as a co-solvent. Ex/Em=355/460 nm. n=4. (In FIG. 2, Try represents trypsin, and SBSA represents (S)-benzylsuccinic acid.)
# PSMA = PSMA (Homo sapiens, UniProt Q04609); assay: Enzyme assay of probes and PSMA (fluorescence increase); assay type: biochemical; conditions: 10 μM probe in TBS buffer, 37° C., 22 ng PSMA, Ex/Em=355/460 nm
# Sequence of PSMA (Q04609 whole entry): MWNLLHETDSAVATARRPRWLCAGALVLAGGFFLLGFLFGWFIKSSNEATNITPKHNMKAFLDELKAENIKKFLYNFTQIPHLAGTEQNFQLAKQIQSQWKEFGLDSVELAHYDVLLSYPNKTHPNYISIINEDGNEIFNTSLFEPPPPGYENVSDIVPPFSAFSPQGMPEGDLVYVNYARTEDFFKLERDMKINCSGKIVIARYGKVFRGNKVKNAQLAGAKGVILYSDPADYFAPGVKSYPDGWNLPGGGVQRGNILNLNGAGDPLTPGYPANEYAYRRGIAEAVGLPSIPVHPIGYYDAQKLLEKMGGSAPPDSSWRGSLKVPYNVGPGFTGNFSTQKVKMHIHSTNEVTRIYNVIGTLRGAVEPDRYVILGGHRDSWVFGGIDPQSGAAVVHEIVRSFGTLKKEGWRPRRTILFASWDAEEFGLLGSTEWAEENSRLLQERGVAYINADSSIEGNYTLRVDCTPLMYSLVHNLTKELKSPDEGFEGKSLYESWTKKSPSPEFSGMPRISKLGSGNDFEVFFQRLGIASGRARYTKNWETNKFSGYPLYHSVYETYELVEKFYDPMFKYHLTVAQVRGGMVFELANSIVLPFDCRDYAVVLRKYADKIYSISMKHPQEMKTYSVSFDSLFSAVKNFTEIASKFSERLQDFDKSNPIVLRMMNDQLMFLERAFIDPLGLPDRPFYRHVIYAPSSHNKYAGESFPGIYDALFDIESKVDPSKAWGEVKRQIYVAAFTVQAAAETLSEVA
# Method: An enzyme assay was performed using the synthesized 4MU-tSoul-AE and PSMA.
# An enzyme assay was performed using the synthesized 4MU-tSoul-GE and PSMA.
# Here, FIG. 9(a) illustrates a reaction scheme of 4MU-tSoul-GE and PSMA. […] Ex/Em=355/460 nm. n=3.
# trypsin = biological target: T2, trypsin (Bos taurus, UniProt P00760); assay: Compound A with only trypsin added (control condition of the CPA assay); assay type: biochemical; conditions: 10 μM Compound A, no CPA
# T2 construct: gene PRSS1
# T2 sequence (P00760 24-246): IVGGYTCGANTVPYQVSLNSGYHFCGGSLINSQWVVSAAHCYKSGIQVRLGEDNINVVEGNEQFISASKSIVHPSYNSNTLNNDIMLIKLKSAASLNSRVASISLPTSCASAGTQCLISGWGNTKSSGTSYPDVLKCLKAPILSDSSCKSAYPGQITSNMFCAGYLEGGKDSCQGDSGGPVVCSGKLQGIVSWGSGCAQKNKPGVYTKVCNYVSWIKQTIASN
# Method: (§2) An enzyme assay using the synthesized Compounds A, B was performed. As a result, the fluorescence of Compounds A and B was increased by incubation with carboxypeptidase A (CPA) and carboxypeptidase B (CPB) which were the respective target enzymes, and the increase in fluorescence was suppressed by addition of (S)-benzylsuccinic acid and MGTA which were the respective inhibitors.
# as §1
# [1] = assay type: physicochemical; conditions: for fluorescence change in the absence of enzyme (non-enzymatic degradation): 10 μM probe in PBS(-), pH 7.4, 37° C., no enzyme
# Method: as §2
# (§3) FIG. 4(a) illustrates a reaction scheme of Compound C and CPB. In FIG. 4(b), 10 μM Compound C in PBS (-) was incubated at 37° C. in the presence or absence of 5 ng CPB containing 0.1% DMSO as a co-solvent. Ex/Em=355/460 nm. n=4. […] 10 μM Compound A or Compound C in PBS (-) was incubated at 37° C. in the absence of CPB. Ex/Em=355/460 nm. n=4.
# (§4) Next, reactivity with CPB and the stability in a buffer solution having a pH of 7.4 were examined. As a result, it became clear that while HMRef-tSoul-AR caused a fluorescence increase of 3320 times by reaction with CPB, HMRef-tSoul-AR was stable for at least about 1 hour in the absence of enzyme. The results are illustrated in FIG. 5.
# (§5) FIG. 5(a) illustrates a reaction scheme of HMRef-tSoul-AR and CPB. FIG. 5(b) illustrates the fluorescence increase of 1 μM HMRef-tSoul-AR in PBS (-) incubated with 30 μg CPB containing 0.1% DMSO as a co-solvent. Incubation was performed at 25° C. The excitation wavelength was 498 nm. FIG. 5(c) illustrates an absorption change of 1 μM HMRef-tSoul-AR in PBS (-) at 25° C. for 50 minutes.
# carboxypeptidase B (CPB) = biological target: T3, carboxypeptidase B (CPB) (Homo sapiens, UniProt P15086); assay type: biochemical; conditions: for fluorescence change on incubation with CPB: 10 μM probe in PBS(-), Ex/Em=355/460 nm
# T3 sequence (P15086 111-417): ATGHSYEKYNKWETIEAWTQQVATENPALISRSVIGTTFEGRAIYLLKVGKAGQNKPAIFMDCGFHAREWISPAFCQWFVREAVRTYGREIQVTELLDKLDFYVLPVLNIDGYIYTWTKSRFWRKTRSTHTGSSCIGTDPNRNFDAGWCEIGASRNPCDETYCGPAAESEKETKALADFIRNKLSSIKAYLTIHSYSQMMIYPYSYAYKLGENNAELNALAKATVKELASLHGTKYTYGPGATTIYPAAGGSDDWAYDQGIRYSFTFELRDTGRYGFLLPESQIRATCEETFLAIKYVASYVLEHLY
# Method: as §2
# FIG. 3(a) illustrates a reaction scheme of Compound B and CPB. In FIG. 3(b), 10 μM Compound B in PBS (-) was incubated at 37° C. with 5 ng CPB in the presence or absence of 100 μM inhibitor (MGTA) containing 0.1% DMSO as a co-solvent. Ex/Em=355/460 nm. n=4.
# An enzyme assay using the synthesized Compound C and CPB was performed.
# as §3, §4, §5
# CPB = biological target: T4, CPB (Homo sapiens, UniProt P15086); assay: Enzyme reaction rate parameters with CPB (fluorescence method, plate reader); assay type: biochemical; conditions: CPB 5 ng, 37° C., PBS pH 7.4, 20 μL, apparent
# T4 sequence (P15086 111-417): T3 sequence (P15086 111-417)
# Method: (§6) In addition, an enzyme reaction rate parameter was calculated.
# (§7) All experiments were performed at 37° C. in a total volume of 20 μL of phosphate buffered saline (pH 7.4) containing DMSO as a co-solvent. 5 ng of CPB or CPM was added. An enzyme reaction initial rate was calculated from a fluorescence change at 535 nm using a plate reader (n=3). The excitation wavelength was 485 nm.
# carboxypeptidase M (CPM) = biological target: T5, carboxypeptidase M (CPM) (Homo sapiens, UniProt P14384); assay: Enzyme reaction rate parameters with CPM (fluorescence method, plate reader); assay type: biochemical
# T5 sequence (P14384 18-423): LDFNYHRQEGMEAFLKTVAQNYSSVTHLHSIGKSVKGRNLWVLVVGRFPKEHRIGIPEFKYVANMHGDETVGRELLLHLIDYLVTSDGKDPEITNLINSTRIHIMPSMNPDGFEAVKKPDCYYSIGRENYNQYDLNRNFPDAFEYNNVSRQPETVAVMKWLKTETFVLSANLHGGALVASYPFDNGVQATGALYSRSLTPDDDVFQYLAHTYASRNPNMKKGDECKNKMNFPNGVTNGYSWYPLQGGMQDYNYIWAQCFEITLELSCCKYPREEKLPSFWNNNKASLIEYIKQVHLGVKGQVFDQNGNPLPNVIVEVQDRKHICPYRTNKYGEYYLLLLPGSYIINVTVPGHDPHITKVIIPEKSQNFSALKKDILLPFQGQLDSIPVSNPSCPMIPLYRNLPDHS
# Method: as §6, §7
# [2] = tested on: MDCK cells expressing CPM; assay: Live imaging of CPM activity in MDCK cells; assay type: cell-based
# Method: Live imaging of the carboxypeptidase activity in living cells was performed using HMRef-tSoul-AR synthesized above. […] Since it has been reported that CPM is expressed as an active form on a cell membrane unlike CPB, addition of trypsin or the like is unnecessary.
# Here, FIGS. 6(a) and 6(b) illustrate fluorescence images of the MDCK cells containing 10 μM HMRef-tSoul-AR in HBSS in the presence (a) or absence (b) of 10 μM MGTA. Ex/Em=488/500-550 nm laser output 5%, PMT 600 V. 10 μM Hoechst 33342 was co-incubated for focal plane correction. For imaging of a Hoechst signal, Ex/Em=405/430-460 nm. Laser output 3%, PMT 1000 V, SP8.
# Here, FIG. 7 illustrates results of UPLC analysis of a medium of the MDCK cells incubated with 20 μM HMRef-tSoul-AR in the presence or absence of 10 μM MGTA. The MDCK cells were incubated with 20 μM HMRef-tSoul-AR in HBSS at 37° C. for 20 hours in the presence or absence of 10 μM MGTA. Elution was performed with a linear gradient of C/D=95/5 to 5/95 in 4 minutes and detected at 254 nm.
# [3] = tested on: basic carboxypeptidase activity in breast cancer tissue; assay: Fluorescence imaging of clinical specimens derived from breast cancer patients; parameters: species or system human
# Method: Four specimens (IDC: invasive ductal carcinoma, 3 cases; DCIS: ductal carcinoma in situ, 1 case) derived from breast cancer patients were subjected to fluorescence imaging by applying HMRef-tSoul-AR to a tumor site and a normal site by the following procedure (FIG. 10).
# HMRef-tSoul-AR was dissolved in PBS so as to have a final concentration of 50 μM (containing 1% DMSO), and applied to clinical specimens from breast cancer patients in the presence and absence of 100 μM MGTA. A fluorescence image was captured on Maestro in vivo imaging system (PerkinElmer, Inc., MA, USA), a 455 nm (435-480 nm) band pass filter was used as an excitation light filter, and a 490 nm long pass filter was used as a fluorescence filter.
# When an increase was observed, in order to examine whether or not the increase was derived from basic carboxypeptidase activity, a group to which the inhibitor MGTA was added was also examined at the same time.
# [4] = CPM 5 ng, 37° C., PBS pH 7.4, 20 μL, apparent
structure (smiles),measurement,setting,value
"O=C(O)C[C@H](Cc1ccccc1)C(=O)O [(S)-benzylsuccinic acid, reference compound]",effect of inhibitor on the increase in fluorescence of Compound A with CPA,"carboxypeptidase A (CPA); 100 μM inhibitor, 10 μM Compound A, 5 ng CPA",suppressed
Cc1cc(=O)oc2cc(OP(=O)(N[C@@H](C)C(=O)N[C@@H](CCC(=O)O)C(=O)O)C(C)(C)C)ccc12 (stereo partly shown) [Compound 4MU-tSoul-AE],fluorescence change on incubation with PSMA,PSMA,the increase in fluorescence was not observed
Cc1cc(=O)oc2cc(OP(=O)(NCC(=O)N[C@@H](CCC(=O)O)C(=O)O)C(C)(C)C)ccc12 (stereo partly shown) [Compound 4MU-tSoul-GE],fluorescence change on incubation with PSMA,PSMA,the increase in fluorescence was observed
CCOP(=O)(N[C@@H](C)C(=O)N[C@@H](Cc1ccccc1)C(=O)O)Oc1ccc2c(C)cc(=O)oc2c1 (stereo partly shown) [Compound A],fluorescence change on incubation with CPA,"carboxypeptidase A (CPA); 10 μM probe in PBS(-), 5 ng CPA activated by 1.5 μg trypsin, Ex/Em=355/460 nm",increased
same,fluorescence change with only trypsin added,trypsin,a remarkable increase in fluorescence was not observed
same,fluorescence change in the absence of enzyme (non-enzymatic degradation),[1],gradually increased even slightly
CCOP(=O)(N[C@@H](C)C(=O)N[C@@H](CCCNC(=N)N)C(=O)O)Oc1ccc2c(C)cc(=O)oc2c1 (stereo partly shown) [Compound B],fluorescence change on incubation with CPB,"carboxypeptidase B (CPB); 37° C., 5 ng CPB",increased
same,fluorescence change in the absence of enzyme (non-enzymatic degradation),[1],gradually increased even slightly
Cc1cc(=O)oc2cc(OP(=O)(N[C@@H](C)C(=O)N[C@@H](CCCNC(=N)N)C(=O)O)C(C)(C)C)ccc12 (stereo partly shown) [Compound C],fluorescence change on incubation with CPB,"carboxypeptidase B (CPB); 37° C., 5 ng CPB",served as a substrate for CPB and showed the increase in fluorescence
same,fluorescence change in the absence of enzyme (non-enzymatic degradation),[1],no increase in fluorescence was observed
C[C@H](NP(=O)(Oc1ccc2c(c1)Oc1cc(NCC(F)(F)F)ccc1C21OCc2ccccc21)C(C)(C)C)C(=O)N[C@@H](CCCNC(=N)N)C(=O)O (stereo partly shown) [HMRef-tSoul-AR],fluorescence increase by reaction with CPB,"carboxypeptidase B (CPB); 1 μM probe in PBS(-), 30 μg CPB, 25° C., excitation 498 nm",3320 times
same,time stable in the absence of enzyme,"[1]; 1 μM probe, buffer pH 7.4, 25° C., absorption change",at least 1 hour
same,Km,CPB,50 µM
same,Vmax,CPB,1.2e-08 M/s
same,kcat,CPB,1.7 s⁻¹
same,substrate recognition by CPM,carboxypeptidase M (CPM),served as a substrate
same,Km,carboxypeptidase M (CPM); [4],61 µM
same,Vmax,carboxypeptidase M (CPM); [4],4e-08 M/s
same,kcat,carboxypeptidase M (CPM); [4],1.0 s⁻¹
same,fluorescence from MDCK cells over time,"[2]; 10 μM probe in HBSS, Ex/Em=488/500-550 nm",an increase in fluorescence over time from the MDCK cells was observed
same,generation of HMRef in external liquid of MDCK cells (UPLC),"[2]; 20 μM probe, HBSS, 37° C., 20 hours",HMRef was certainly generated
same,fluorescence from tumor tissue as compared with normal tissue,"[3]; 50 μM probe in PBS (1% DMSO), four breast cancer specimens",remarkable increase in fluorescence
"NC(N)=NCCSCC(CS)C(=O)O (stereo not shown) [MGTA, reference compound]",effect of inhibitor on the increase in fluorescence of Compound B with CPB,"carboxypeptidase B (CPB); 100 μM inhibitor, 10 μM Compound B, 5 ng CPB, 37° C.",suppressed
same,effect of inhibitor on the increase in fluorescence of HMRef-tSoul-AR in MDCK cells,"[2]; 10 μM inhibitor, 10 μM HMRef-tSoul-AR in HBSS",completely suppressed
same,effect of inhibitor on the increase in fluorescence of HMRef-tSoul-AR in breast cancer specimens,"[3]; 100 μM inhibitor, 50 μM HMRef-tSoul-AR",suppressed
